Solubility data for 1 compound are collected here from patent US6416585B1, “Method for crystallizing polyols and sugars” (Vomm Chemipharma S.r.l., priority 1999, dated 2002).

The series in a line: solubility of the crystallized granular sorbitol compared with the prior art. The class given is physicochemical. To be noted: sorbitol granules of Example 1 after two hours long maturation; in comparison with the prior art.

As for `OC[C@@H](O)[C@@H](O)[C@H](O)[C@@H](O)CO` [sorbitol granules, sorbitol], the solubility result is reported as “definitely improved”.
